Consider two molecules from ChEMBL document CHEMBL2311317, “Organosilicon molecules with medicinal applications” (J Med Chem, 2013).

This assay has as its target Matrix protein 2 (Influenza A virus (A/Udorn/307/1972(H3N2)), UniProt P0DOF8, V27A).

Molecules are shown by their SMILES.

As a reminder, the IC50 is the point on the concentration scale where inhibition reaches its midpoint. Read a low IC50 as higher potency. `NC1CC[Si]2(CCCC2)CC1` came in with an IC50 of 96.3 µM.
`NC1CCC2(CCCC2)CC1`: the IC50 turned out to be 319 µM.
